This passage reports IC50 results from BindingDB's records for doi:10.1021/bi00419a019 (University of Wisconsin, 1988).

The target in the test is T1, Aminopeptidase B (Mus musculus, UniProt Q8VCT3).
T1 sequence (Q8VCT3 whole entry): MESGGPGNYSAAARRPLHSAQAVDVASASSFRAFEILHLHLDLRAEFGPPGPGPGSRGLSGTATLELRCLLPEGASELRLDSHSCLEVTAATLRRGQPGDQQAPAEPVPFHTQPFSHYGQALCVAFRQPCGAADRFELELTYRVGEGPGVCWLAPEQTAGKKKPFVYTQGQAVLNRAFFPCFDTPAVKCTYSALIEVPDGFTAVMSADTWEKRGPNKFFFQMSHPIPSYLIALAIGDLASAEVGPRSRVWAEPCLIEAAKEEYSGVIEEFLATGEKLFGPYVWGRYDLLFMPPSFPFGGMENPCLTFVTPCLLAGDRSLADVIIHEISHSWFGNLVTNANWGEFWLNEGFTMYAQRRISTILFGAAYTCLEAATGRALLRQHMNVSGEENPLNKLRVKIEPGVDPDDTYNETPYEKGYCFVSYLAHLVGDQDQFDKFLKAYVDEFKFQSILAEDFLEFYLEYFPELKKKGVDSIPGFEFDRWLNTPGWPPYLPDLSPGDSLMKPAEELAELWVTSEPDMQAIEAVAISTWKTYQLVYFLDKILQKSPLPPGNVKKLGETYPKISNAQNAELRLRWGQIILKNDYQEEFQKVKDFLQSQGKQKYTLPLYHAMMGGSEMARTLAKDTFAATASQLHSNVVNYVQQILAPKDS

SMILES strings stand for the structures. pIC50: −log10 of the molar value.

In general, pIC50 refers to the negative decadic logarithm of the IC50, by convention in mol/L. Lower therefore signals a large IC50. Consider `CC(C)C[C@H](NC(=O)[C@@H](O)[C@H](N)Cc1ccccc1)C(=O)O`, for which the pIC50 is 3.80.
